ChEMBL document CHEMBL1201862, “PubChem BioAssay data set” (2004)
Calls of active or inactive are those of the source.

Key:
[1] = biological target: Cytochrome P450 2C9 (Homo sapiens, UniProt P11712)
[2] = (§1) Counterscreen for antagonists of the orexin 1 receptor (OX1R; HCRTR1): Fluorescence-based cell-based high throughput dose response assay to identify antagonists of the parental CHO cell line. [Related pubchem assays (depositor defined):AID434989, AID435008, AID463079, AID485270, AID492963, AID492964, AID492965, AID493232, AID504699, AID504701]; type: functional
[3] = biological target: T1, Orexin receptor type 2 (Homo sapiens, UniProt O43614); test: Counterscreen assay for antagonists of the orexin 1 receptor (OX1R; HCRTR1): Fluorescence-based cell-based dose response assay for antagonists of the orexin 2 receptor (OX2R; HCRTR2), run by assay provider.; type: functional
T1 sequence (O43614 whole entry): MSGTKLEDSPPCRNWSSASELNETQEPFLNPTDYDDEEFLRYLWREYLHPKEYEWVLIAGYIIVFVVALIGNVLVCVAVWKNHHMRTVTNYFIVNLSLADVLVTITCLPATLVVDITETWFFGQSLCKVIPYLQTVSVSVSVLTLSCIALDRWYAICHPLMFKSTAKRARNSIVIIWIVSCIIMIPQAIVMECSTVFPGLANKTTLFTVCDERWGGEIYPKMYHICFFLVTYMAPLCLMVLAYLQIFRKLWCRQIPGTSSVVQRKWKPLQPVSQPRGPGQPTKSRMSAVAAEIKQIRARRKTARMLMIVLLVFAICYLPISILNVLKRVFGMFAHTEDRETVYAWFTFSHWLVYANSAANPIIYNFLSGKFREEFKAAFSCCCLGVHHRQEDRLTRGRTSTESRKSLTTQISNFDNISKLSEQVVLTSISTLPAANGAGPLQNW

[4] = biological target: T2, Orexin/Hypocretin receptor type 1 (Homo sapiens, UniProt O43613); test: (§2) Fluorescence-based cell-based high throughput dose response assay for antagonists of the orexin 1 receptor (OX1R; HCRTR1). [Related pubchem assays (depositor defined):AID434989, AID435008, AID463079, AID485270, AID492963, AID492964, AID492965, AID493232, AID504717, AID504718]; type: functional
T2 sequence (O43613 whole entry): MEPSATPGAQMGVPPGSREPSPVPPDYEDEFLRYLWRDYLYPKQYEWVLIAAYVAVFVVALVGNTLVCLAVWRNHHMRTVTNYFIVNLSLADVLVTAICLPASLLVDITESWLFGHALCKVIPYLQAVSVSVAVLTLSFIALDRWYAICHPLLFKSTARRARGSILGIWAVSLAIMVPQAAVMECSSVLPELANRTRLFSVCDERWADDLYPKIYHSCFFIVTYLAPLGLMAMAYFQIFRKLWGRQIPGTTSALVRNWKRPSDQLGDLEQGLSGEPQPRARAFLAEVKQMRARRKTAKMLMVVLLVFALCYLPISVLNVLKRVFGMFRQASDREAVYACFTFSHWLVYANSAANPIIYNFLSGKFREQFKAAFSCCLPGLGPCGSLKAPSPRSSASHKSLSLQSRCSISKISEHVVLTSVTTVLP

[5] = biological target: T2, Orexin/Hypocretin receptor type 1; test: as §2, with “Homogeneous Time Resolved Fluorescence (HTRF)-based” for “Fluorescence-based”; type: functional
[6] = biological target: T1, Orexin receptor type 2; test: Counterscreen assay for antagonists of the orexin 1 receptor (OX1R; HCRTR1): Homogeneous Time Resolved Fluorescence (HTRF)-based cell-based dose response assay for antagonists of the orexin 2 receptor (OX2R; HCRTR2), run by assay provider.; type: functional
[7] = biological target: Peroxisome proliferator-activated receptor gamma/Nuclear receptor coactivator 2 (Homo sapiens, UniProt P37231); test: (§3) TR-FRET dose response biochemical High Throughput Screening assay for agonists of the steroid receptor coactivator 2 (SRC-2) recruitment by the peroxisome proliferator-activated receptor gamma (PPAR gamma): non-selective agonists. [Related pubchem assays: 1297, 1032 ]; type: functional
[8] = biological target: Peroxisome proliferator-activated receptor gamma/Nuclear receptor coactivator 3 (Homo sapiens, UniProt P37231); test: as §3, with “3 (SRC-3)” for “2 (SRC-2)”, “1301 (Confirmation screen.), 1048 (Primary screen.)]” for “1297, 1032 ]”; type: functional
[9] = biological target: Photoreceptor-specific nuclear receptor (Homo sapiens, UniProt Q9Y5X4); test: ligands suppressing NR2E3 nuclear receptor activity – biochemical, TR-FRET, dose response (AID 463256); type: functional
[10] = tested on: CHO-K1; test: as §1, with “Homogeneous time resolved fluorescence (HTRF)-based” for “Fluorescence-based”, “cell-based” for “cell-based high throughput”, “CHO-K1” for “CHO”; type: functional; details: Cricetulus griseus;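 also: potency for inhibition of ATP-stimulated IP1 production as antagonists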
[11] = biological target: Peroxisome proliferator-activated receptor gamma/Nuclear receptor corepressor 2 (Homo sapiens, UniProt P37231+Q9Y618); test: Counterscreen for NR2E3 inverse agonists: TR-FRET-based biochemical high throughput dose response assay to identify inverse agonists of the interaction between peroxisome proliferator-activated receptor gamma (PPARg) and nuclear receptor co-repressor 2 (NCOR2).; type: functional
[12] = biological target: Peroxisome proliferator-activated receptor gamma/Nuclear receptor coactivator 1 (Homo sapiens, UniProt P37231); test: as §3, with “1 (SRC-1)” for “2 (SRC-2)”, “assays (depositor defined):AID1300, AID1808, AID504735, AID631]” for “assays: 1297, 1032 ]”; type: protein assay
[13] = biological target: CAAX prenyl protease 1 (Saccharomyces cerevisiae S288c, UniProt P47154); test: yeast CAAX protease Ste24 inhibition – biochemical, S. cerevisiae, plate reader, cherry-pick, dose response (AID 488815)
[14] = biological target: Cytochrome P450 2D6 (Homo sapiens, UniProt P10635);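 also: CYP2D6 member of a cytochrome P450 panel assay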
[15] = biological target: Cytochrome P450 3A4 (Homo sapiens, UniProt P08684);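 also: CYP3A4 tested as one member of a cytochrome P450 panel screen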
Chain of Cytochrome P450 3A4 (P08684 whole entry): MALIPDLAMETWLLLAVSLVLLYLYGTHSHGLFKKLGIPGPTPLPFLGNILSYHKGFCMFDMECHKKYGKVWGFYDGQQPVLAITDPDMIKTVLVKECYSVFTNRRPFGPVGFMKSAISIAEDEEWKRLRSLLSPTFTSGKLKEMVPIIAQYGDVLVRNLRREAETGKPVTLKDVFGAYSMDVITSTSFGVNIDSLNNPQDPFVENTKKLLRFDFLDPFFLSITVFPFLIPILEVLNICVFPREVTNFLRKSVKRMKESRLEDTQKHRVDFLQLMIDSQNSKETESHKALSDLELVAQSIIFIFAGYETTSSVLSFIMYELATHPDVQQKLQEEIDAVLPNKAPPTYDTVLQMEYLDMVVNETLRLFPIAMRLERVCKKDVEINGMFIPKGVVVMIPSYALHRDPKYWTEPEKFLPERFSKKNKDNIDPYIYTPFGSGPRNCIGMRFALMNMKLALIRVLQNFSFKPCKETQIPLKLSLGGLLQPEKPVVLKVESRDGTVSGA

Chain of CAAX prenyl protease 1 (P47154 whole entry): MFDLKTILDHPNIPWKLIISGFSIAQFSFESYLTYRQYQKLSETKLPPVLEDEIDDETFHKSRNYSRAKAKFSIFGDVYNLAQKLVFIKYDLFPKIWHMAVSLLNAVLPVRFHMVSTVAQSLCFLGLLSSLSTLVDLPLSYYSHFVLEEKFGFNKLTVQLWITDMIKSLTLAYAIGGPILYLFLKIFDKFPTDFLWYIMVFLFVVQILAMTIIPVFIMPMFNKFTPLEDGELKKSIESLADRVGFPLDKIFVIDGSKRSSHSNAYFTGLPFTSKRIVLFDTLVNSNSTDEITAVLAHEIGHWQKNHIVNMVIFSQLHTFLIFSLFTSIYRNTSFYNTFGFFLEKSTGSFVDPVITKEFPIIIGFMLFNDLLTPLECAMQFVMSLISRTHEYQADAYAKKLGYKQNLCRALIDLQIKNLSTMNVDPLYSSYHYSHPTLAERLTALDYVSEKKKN
Chain of Cytochrome P450 2C9 (P11712 whole entry): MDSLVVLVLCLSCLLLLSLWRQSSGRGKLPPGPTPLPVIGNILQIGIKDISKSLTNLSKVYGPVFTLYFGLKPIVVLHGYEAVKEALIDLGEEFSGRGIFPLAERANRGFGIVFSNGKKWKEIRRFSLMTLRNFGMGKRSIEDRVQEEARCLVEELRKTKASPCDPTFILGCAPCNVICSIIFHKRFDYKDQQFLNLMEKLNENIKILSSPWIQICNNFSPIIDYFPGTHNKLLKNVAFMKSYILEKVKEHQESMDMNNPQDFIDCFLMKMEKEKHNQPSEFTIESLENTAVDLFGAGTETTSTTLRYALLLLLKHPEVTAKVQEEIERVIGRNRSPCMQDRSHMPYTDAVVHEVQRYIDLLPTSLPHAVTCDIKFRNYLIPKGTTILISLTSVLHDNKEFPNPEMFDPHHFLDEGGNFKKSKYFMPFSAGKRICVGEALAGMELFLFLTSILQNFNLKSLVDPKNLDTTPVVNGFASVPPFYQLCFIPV
Chain of Cytochrome P450 2D6 (P10635 whole entry): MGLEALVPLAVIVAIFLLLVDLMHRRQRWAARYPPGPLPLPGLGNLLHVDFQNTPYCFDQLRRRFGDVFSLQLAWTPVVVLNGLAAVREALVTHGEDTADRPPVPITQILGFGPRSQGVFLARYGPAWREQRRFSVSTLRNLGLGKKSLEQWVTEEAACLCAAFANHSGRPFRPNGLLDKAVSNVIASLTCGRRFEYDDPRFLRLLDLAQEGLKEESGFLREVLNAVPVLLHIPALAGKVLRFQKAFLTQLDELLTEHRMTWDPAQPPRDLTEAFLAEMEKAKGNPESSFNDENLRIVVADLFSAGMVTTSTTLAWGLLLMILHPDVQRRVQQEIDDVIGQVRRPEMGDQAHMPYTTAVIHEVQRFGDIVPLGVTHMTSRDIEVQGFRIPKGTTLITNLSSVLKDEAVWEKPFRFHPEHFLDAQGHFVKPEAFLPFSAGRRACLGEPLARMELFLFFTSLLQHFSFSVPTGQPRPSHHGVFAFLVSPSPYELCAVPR
Chain of Peroxisome proliferator-activated receptor gamma/Nuclear receptor corepressor 2 (P37231 whole entry): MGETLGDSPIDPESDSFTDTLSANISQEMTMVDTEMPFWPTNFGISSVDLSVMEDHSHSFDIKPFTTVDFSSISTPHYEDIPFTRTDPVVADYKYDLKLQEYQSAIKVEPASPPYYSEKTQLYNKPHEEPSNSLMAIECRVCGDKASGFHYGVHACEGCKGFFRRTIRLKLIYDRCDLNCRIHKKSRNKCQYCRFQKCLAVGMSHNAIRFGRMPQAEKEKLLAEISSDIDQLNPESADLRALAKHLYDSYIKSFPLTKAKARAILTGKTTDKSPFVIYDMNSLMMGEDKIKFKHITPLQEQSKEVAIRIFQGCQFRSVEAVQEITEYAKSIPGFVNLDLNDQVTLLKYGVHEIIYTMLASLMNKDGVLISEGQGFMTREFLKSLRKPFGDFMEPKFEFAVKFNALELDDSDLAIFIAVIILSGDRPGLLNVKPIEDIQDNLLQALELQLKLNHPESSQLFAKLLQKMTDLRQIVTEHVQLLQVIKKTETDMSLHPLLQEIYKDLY
Chain of Peroxisome proliferator-activated receptor gamma/Nuclear receptor corepressor 2 (Q9Y618 whole entry): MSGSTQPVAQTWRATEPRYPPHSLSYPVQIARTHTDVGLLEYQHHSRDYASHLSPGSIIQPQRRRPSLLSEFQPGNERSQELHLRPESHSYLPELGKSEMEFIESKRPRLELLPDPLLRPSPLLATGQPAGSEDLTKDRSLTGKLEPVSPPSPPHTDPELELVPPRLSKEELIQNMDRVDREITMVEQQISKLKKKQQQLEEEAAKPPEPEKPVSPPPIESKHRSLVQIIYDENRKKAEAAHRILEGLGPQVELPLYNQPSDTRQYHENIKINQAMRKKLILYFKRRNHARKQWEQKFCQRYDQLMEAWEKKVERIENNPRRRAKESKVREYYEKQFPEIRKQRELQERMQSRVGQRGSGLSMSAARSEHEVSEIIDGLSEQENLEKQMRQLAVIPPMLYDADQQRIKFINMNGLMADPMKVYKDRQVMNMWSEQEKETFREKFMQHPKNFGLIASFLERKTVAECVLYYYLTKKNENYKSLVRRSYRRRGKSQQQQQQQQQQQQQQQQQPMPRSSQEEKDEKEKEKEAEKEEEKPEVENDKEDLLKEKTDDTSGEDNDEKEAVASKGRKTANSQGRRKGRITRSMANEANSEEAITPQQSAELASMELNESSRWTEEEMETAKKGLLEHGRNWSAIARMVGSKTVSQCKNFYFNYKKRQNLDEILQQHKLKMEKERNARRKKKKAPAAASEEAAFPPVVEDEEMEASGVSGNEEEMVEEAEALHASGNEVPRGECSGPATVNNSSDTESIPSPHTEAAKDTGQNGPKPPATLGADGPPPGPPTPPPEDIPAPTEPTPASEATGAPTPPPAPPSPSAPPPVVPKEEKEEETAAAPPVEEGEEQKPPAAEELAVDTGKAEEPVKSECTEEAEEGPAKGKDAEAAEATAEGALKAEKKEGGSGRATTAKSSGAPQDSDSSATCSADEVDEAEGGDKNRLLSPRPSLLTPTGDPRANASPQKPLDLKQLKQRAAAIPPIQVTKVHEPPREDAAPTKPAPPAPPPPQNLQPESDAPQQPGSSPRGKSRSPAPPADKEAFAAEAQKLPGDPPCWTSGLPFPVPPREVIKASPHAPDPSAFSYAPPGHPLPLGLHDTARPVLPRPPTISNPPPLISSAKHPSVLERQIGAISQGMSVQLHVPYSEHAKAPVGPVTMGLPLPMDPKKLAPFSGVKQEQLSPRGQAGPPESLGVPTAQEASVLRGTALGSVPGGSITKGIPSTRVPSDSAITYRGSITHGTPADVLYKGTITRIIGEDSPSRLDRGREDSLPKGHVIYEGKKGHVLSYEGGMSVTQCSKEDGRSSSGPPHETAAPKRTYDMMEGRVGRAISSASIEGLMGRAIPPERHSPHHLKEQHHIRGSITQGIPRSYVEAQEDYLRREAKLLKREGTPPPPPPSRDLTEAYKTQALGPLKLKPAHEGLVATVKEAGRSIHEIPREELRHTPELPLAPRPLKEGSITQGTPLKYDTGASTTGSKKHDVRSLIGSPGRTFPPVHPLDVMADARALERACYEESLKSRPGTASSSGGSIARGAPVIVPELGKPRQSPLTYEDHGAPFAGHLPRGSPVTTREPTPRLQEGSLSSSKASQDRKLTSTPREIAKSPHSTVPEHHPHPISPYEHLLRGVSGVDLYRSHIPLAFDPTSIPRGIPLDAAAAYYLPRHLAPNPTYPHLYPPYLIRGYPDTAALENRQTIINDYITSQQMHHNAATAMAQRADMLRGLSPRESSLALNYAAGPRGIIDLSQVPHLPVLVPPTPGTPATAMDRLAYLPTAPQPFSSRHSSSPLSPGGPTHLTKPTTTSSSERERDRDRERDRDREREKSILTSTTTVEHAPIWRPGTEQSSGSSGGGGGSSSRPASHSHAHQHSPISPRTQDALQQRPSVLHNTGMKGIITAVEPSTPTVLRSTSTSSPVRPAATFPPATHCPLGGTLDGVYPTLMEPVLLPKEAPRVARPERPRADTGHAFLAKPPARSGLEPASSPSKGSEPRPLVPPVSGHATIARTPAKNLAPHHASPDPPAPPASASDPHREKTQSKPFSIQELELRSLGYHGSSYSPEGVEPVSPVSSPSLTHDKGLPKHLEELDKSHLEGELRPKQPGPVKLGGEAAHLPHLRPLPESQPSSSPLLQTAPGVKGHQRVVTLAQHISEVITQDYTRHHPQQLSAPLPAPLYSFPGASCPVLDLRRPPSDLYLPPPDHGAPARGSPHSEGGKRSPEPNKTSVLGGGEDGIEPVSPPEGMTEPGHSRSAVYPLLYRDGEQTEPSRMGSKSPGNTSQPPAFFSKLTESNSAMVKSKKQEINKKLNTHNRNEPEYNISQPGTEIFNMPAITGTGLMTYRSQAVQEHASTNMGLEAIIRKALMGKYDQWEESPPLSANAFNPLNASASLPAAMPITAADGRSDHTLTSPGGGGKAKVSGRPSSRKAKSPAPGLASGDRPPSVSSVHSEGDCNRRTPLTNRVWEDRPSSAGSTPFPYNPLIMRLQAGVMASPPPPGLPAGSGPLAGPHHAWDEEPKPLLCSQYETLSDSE

CCOc1ccccc1Oc1coc2cc(OC)ccc2c1=O
AC50 [1]: inconclusive

NS(=O)(=O)c1ccc(CNC(=O)c2cc(-c3ccccn3)nc3ccc(Cl)cc23)cc1
IC50 [2]: > 49.7 µM (inactive) | IC50 [3]: 30.1 µM (inactive) | IC50 [4]: > 49.7 µM (inactive) | IC50 [5]: 2.46 µM (active) | IC50 [6]: > 50 µM (inactive) | EC50 [7]: 5.82 µM (active) | EC50 [8]: 17.6 µM (not active) | IC50 [9]: > 4.43 µM (active) | IC50 [10]: > 66.2 µM (inactive) | IC50 [11]: > 39.9 µM (not active) | EC50 [12]: 6.13 µM (active)

COc1cc(OC)cc(-c2ncc3ccccn23)c1
AC50 [13]: 5.47 µM (active)

Br/C(=N\N=c1/nn[nH][nH]1)c1ccncc1
AC50 [14]: inconclusive | AC50 [15]: 5.01 µM (inconclusive)
